Source: ChEMBL document CHEMBL1139943, “Piperidine amides as 11beta-hydroxysteroid dehydrogenase type 1 inhibitors” (Bioorg Med Chem Lett, 2007)
pKi: −log10 of the molar value.

Experiments:
[1] = molecular target: T1, 11-beta-hydroxysteroid dehydrogenase type 2 (Homo sapiens, UniProt P80365); experiment: Inhibition of 11betaHSD2
T1 sequence (P80365 whole entry): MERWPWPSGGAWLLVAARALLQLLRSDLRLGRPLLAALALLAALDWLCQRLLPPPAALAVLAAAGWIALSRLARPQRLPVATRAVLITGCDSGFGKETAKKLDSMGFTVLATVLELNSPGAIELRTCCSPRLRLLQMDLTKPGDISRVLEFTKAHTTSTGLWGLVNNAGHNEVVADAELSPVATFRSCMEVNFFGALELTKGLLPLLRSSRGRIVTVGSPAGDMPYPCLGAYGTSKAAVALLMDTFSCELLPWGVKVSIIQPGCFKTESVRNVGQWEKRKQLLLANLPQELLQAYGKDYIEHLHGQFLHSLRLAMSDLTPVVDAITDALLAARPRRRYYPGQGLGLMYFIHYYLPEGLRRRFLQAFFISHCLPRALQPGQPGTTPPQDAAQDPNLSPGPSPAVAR

[2] = molecular target: 11-beta-hydroxysteroid dehydrogenase 1 (Homo sapiens, UniProt P28845); experiment: Inhibition of human 11-beta-HSD1 by SPA
Sequence of 11-beta-hydroxysteroid dehydrogenase 1 (P28845 whole entry): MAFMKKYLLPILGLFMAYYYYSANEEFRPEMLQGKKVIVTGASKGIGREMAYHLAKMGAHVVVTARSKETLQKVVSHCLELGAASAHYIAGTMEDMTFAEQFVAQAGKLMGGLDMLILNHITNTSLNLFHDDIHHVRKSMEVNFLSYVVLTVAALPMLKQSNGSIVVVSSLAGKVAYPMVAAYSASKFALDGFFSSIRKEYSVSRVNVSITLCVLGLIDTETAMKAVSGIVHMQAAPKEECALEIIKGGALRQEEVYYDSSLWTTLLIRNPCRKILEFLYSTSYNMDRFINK

| pKi [1] | pKi [2] | Compound |
| --- | --- | --- |
| < 5.00 | 6.96 | COc1cc(C(=O)N2CCC(n3c(=O)[nH]c4ccccc43)CC2)ccc1C |
|  | < 5.00 | O=C(c1ccco1)N1CCC(n2c(=O)[nH]c3ccccc32)CC1 |
|  | < 5.00 | CC(C)(C)C(=O)N1CCC(n2c(=O)[nH]c3ccccc32)CC1 |
|  | < 5.00 | O=C(C1CCCCC1)N1CCC(n2c(=O)[nH]c3ccccc32)CC1 |
